Test results from the NIST ThermoML archive (doi:10.1021/je049582g).

Assay: cn = amount concentration of the nth substance listed, in mol/dm3
Conditions: 298 K, 101 kPa, Liquid, holographic interferometric technique

Compound: CC[C@H](C)[C@H](N)C(=O)O [2-amino-3-methylpentanoic acid] + O
- binary diffusion coefficient (c1 = 0.0101): 7.61e-10 m2/s
- binary diffusion coefficient (c1 = 0.0203): 7.5e-10 m2/s
- binary diffusion coefficient (c1 = 0.0301): 7.39e-10 m2/s
- binary diffusion coefficient (c1 = 0.0399): 7.32e-10 m2/s
- binary diffusion coefficient (c1 = 0.05): 7.25e-10 m2/s

Compound: NCC(=O)O [2-aminoacetic acid] + O
- binary diffusion coefficient (c1 = 0.1057): 1.04e-09 m2/s
- binary diffusion coefficient (c1 = 0.3056): 1e-09 m2/s
- binary diffusion coefficient (c1 = 0.5045): 9.73e-10 m2/s
- binary diffusion coefficient (c1 = 0.7064): 9.57e-10 m2/s
- binary diffusion coefficient (c1 = 0.9045): 9.43e-10 m2/s

Compound: NCCC(=O)O [3-aminopropanoic acid] + O
- binary diffusion coefficient (c1 = 0.0281): 9.36e-10 m2/s
- binary diffusion coefficient (c1 = 0.0288): 9.35e-10 m2/s
- binary diffusion coefficient (c1 = 0.0299): 9.34e-10 m2/s
- binary diffusion coefficient (c1 = 0.0344): 9.33e-10 m2/s
- binary diffusion coefficient (c1 = 0.111): 9.18e-10 m2/s
- binary diffusion coefficient (c1 = 0.5605): 8.67e-10 m2/s
- binary diffusion coefficient (c1 = 0.5886): 8.68e-10 m2/s
- binary diffusion coefficient (c1 = 1.123): 8.18e-10 m2/s
- binary diffusion coefficient (c1 = 1.766): 7.79e-10 m2/s
- binary diffusion coefficient (c1 = 2.34): 7.52e-10 m2/s
- binary diffusion coefficient (c1 = 2.665): 7.4e-10 m2/s
- binary diffusion coefficient (c1 = 3.008): 7.2e-10 m2/s
- binary diffusion coefficient (c1 = 3.931): 6.63e-10 m2/s
- binary diffusion coefficient (c1 = 4.543): 6.25e-10 m2/s
- binary diffusion coefficient (c1 = 5.419): 5.6e-10 m2/s

Compound: CC[C@@H](N)C(=O)O [(R)-(-)-α-aminobutyric acid] + O
- binary diffusion coefficient (c1 = 0.2): 8e-10 m2/s
- binary diffusion coefficient (c1 = 0.4): 7.72e-10 m2/s
- binary diffusion coefficient (c1 = 0.6): 7.45e-10 m2/s
- binary diffusion coefficient (c1 = 0.8): 7.2e-10 m2/s
- binary diffusion coefficient (c1 = 1): 6.97e-10 m2/s

Compound: C[C@H](N)C(=O)O [(S)-2-aminopropanoic acid] + O
- binary diffusion coefficient (c1 = 0.0997): 9.04e-10 m2/s
- binary diffusion coefficient (c1 = 0.2996): 8.59e-10 m2/s
- binary diffusion coefficient (c1 = 0.4996): 8.34e-10 m2/s
- binary diffusion coefficient (c1 = 0.7002): 8.12e-10 m2/s
- binary diffusion coefficient (c1 = 0.9006): 7.92e-10 m2/s

Compound: OC[C@H]1O[C@@](CO)(O[C@H]2O[C@H](CO)[C@@H](O)[C@H](O)[C@H]2O)[C@@H](O)[C@@H]1O [D-sucrose] + O
- binary diffusion coefficient (c1 = 0.1): 4.89e-10 m2/s
- binary diffusion coefficient (c1 = 0.3): 4.27e-10 m2/s
- binary diffusion coefficient (c1 = 0.5): 3.67e-10 m2/s
- binary diffusion coefficient (c1 = 0.7): 3.06e-10 m2/s

Compound: CC(N)C(=O)O (stereo not drawn) [DL-2-aminopropanoic acid] + O
- binary diffusion coefficient (c1 = 0.0271): 9.11e-10 m2/s
- binary diffusion coefficient (c1 = 0.0281): 9.11e-10 m2/s
- binary diffusion coefficient (c1 = 0.2233): 8.84e-10 m2/s
- binary diffusion coefficient (c1 = 0.4374): 8.56e-10 m2/s
- binary diffusion coefficient (c1 = 0.6786): 8.27e-10 m2/s
- binary diffusion coefficient (c1 = 0.9025): 8.02e-10 m2/s
- binary diffusion coefficient (c1 = 1.195): 7.72e-10 m2/s
- binary diffusion coefficient (c1 = 1.541): 7.41e-10 m2/s

Compound: N=C(N)NCCC[C@H](N)C(=O)O [L-arginine] + O
- binary diffusion coefficient (c1 = 0.1002): 7.01e-10 m2/s
- binary diffusion coefficient (c1 = 0.2): 6.61e-10 m2/s
- binary diffusion coefficient (c1 = 0.2949): 6.36e-10 m2/s
- binary diffusion coefficient (c1 = 0.4001): 6.21e-10 m2/s
- binary diffusion coefficient (c1 = 0.5): 6.04e-10 m2/s

Compound: N[C@@H](CO)C(=O)O [L-serine] + O
- binary diffusion coefficient (c1 = 0.01): 9.16e-10 m2/s
- binary diffusion coefficient (c1 = 0.0301): 8.91e-10 m2/s
- binary diffusion coefficient (c1 = 0.05): 8.79e-10 m2/s
- binary diffusion coefficient (c1 = 0.07): 8.71e-10 m2/s
- binary diffusion coefficient (c1 = 0.0902): 8.65e-10 m2/s

Compound: C[C@@H](O)[C@H](N)C(=O)O [L-threonine] + O
- binary diffusion coefficient (c1 = 0.1006): 7.86e-10 m2/s
- binary diffusion coefficient (c1 = 0.2002): 7.58e-10 m2/s
- binary diffusion coefficient (c1 = 0.2994): 7.42e-10 m2/s
- binary diffusion coefficient (c1 = 0.4002): 7.25e-10 m2/s
- binary diffusion coefficient (c1 = 0.5003): 7.15e-10 m2/s

Compound: CC(C)[C@H](N)C(=O)O [L-valine] + O
- binary diffusion coefficient (c1 = 0.1): 7.12e-10 m2/s
- binary diffusion coefficient (c1 = 0.2): 6.79e-10 m2/s
- binary diffusion coefficient (c1 = 0.2999): 6.55e-10 m2/s
- binary diffusion coefficient (c1 = 0.4): 6.45e-10 m2/s
- binary diffusion coefficient (c1 = 0.5001): 6.33e-10 m2/s

Compound: [Cl-].[K+] [potassium chloride] + O
- binary diffusion coefficient (c1 = 0.33): 1.83e-10 m2/s

Compound: NC(N)=O [urea] + O
- binary diffusion coefficient (c1 = 0.125): 1.37e-09 m2/s
- binary diffusion coefficient (c1 = 0.2475): 1.36e-09 m2/s
- binary diffusion coefficient (c1 = 0.5): 1.34e-09 m2/s
- binary diffusion coefficient (c1 = 0.75): 1.33e-09 m2/s
- binary diffusion coefficient (c1 = 0.9782): 1.31e-09 m2/s
- binary diffusion coefficient (c1 = 1): 1.31e-09 m2/s
- binary diffusion coefficient (c1 = 1.5): 1.27e-09 m2/s
- binary diffusion coefficient (c1 = 2): 1.24e-09 m2/s
- binary diffusion coefficient (c1 = 3): 1.19e-09 m2/s
- binary diffusion coefficient (c1 = 4): 1.14e-09 m2/s
